From US10125148B2, “Pyrazolopyrimidine macrocycles as inhibitors of human immunodeficiency virus replication” (priority 2014, dated 2018)

test system: NL-RLuc virus; test: Inhibition of HIV replication (NL-RLuc luciferase reporter virus in MT-2 cells); format: cell-based; conditions: Human immunodeficiency virus 1, MT2, 120 h

Which EC50 does the source give for `Cc1cc(F)c2c(c1)O[C@@H](C)CCCCOC1(C)CCN(CC1)c1c([C@H](OC(C)(C)C)C(=O)O)c(C)nc3cc(nn13)-c1cccc-2c1` [Example 5, (2S)-2-(tert-Butoxy)-2-[(22S)-16-fluoro-4,18,22,28-tetramethyl-21,27-dioxa-1,5,7,8-tetraazahexacyclo[26.2.2.1^6,9.1^10,14.0^2,7.0^15,20]tetratriaconta-2,4,6(34),8,10(33),11,13,15(20),16,18-decaen-3-yl]acetic acid] here?
Its EC50 is 22 nM.

How did the EC50 turn out when `CCc1ccc2c(c1)-c1cccc(c1)-c1cc3nc(C)c([C@H](OC(C)(C)C)C(=O)O)c(n3n1)N1CCC(C)(CC1)OC/C=C/C[C@H](C)O2` [Example 6, (2S)-2-(tert-Butoxy)-2-[(22S)-17-ethyl-4,22,28-trimethyl-21,27-dioxa-1,5,7,8-tetraazahexacyclo[26.2.2.1^6,9.1^10,14.0^2,7.0^15,20]tetratriaconta-2,4,6(34),8,10(33),11,13,15(20),16,18,24-undecaen-3-yl]acetic acid] was run?
Its EC50 is 31 nM.

Which EC50 does the source give for `CCc1ccc2c(c1)-c1cccc(c1)-c1cc3nc(C)c([C@H](OC(C)(C)C)C(=O)O)c(n3n1)N1CCC(C)(CC1)OCCCC[C@H](C)O2` [Example 7, (2S)-2-(tert-Butoxy)-2-[(22S)-17-ethyl-4,22,28-trimethyl-21,27-dioxa-1,5,7,8-tetraazahexacyclo[26.2.2.1^6,9.1^10,14.0^2,7.0^15,20]tetratriaconta-2,4,6(34),8,10(33),11,13,15(20),16,18-decaen-3-yl]acetic acid] here?
Its EC50 is 29 nM.

How did the EC50 turn out when `COc1ccc2c(c1)-c1cccc(c1)-c1cc3nc(C)c([C@H](OC(C)(C)C)C(=O)O)c(n3n1)N1CCC(C)(CC1)OCCCC[C@H](C)O2` [Example 8, (2S)-2-(tert-Butoxy)-2-[(22S)-17-methoxy-4,22,28-trimethyl-21,27-dioxa-1,5,7,8-tetraazahexacyclo[26.2.2.1^6,9.1^10,14.0^2,7.0^15,20]tetratriaconta-2,4,6(34),8,10(33),11,13,15(20),16,18-decaen-3-yl]acetic acid] was run?
The EC50 was 5 nM.

How did the EC50 turn out when `Cc1nc2cc3nn2c(c1[C@H](OC(C)(C)C)C(=O)O)N1CCC(C)(CC1)OC/C=C/[C@H](C)Oc1cc(F)ccc1-c1cccc-3c1` [Example 9, (2S)-2-(tert-Butoxy)-2-[(23E)-18-fluoro-4,22,27-trimethyl-21,26-dioxa-1,5,7,8-tetraazahexacyclo[25.2.2.1^6,9.1^10,14.0^2,7.0^15,20]tritriaconta-2,4,6(33),8,10(32),11,13,15(20),16,18,23-undecaen-3-yl]acetic acid] was run?
Its EC50 is 6 nM.

With `Cc1nc2cc3nn2c(c1[C@H](OC(C)(C)C)C(=O)O)N1CCC(C)(CC1)OCCC[C@H](C)Oc1cc(F)ccc1-c1cccc-3c1` [Example 10, (2S)-2-(tert-Butoxy)-2-[(22S)-18-fluoro-4,22,27-trimethyl-21,26-dioxa-1,5,7,8-tetraazahexacyclo[25.2.2.1^6,9.1^10,14.0^2,7.0^15,20]tritriaconta-2,4,6(33),8,10(32),11,13,15(20),16,18-decaen-3-yl]acetic acid] as the molecule, how does the EC50 read?
The EC50 was 11 nM.

How did the EC50 turn out when `Cc1ccc2c(c1F)-c1cccc(c1)-c1cc3nc(C)c([C@H](OC(C)(C)C)C(=O)O)c(n3n1)N1CCC(C)(CC1)OC/C=C/[C@H](C)O2` [Example 11, (2S)-2-(tert-Butoxy)-2-[(22S,23E)-16-fluoro-4,17,22,27-tetramethyl-21,26-dioxa-1,5,7,8-tetraazahexacyclo[25.2.2.1^6,9.1^10,14.0^2,7.0^15,20]tritriaconta-2,4,6(33),8,10(32),11,13,15(20),16,18,23-undecaen-3-yl]acetic acid] was run?
Its EC50 is 3 nM.

For `Cc1ccc2c(c1F)-c1cccc(c1)-c1cc3nc(C)c([C@H](OC(C)(C)C)C(=O)O)c(n3n1)N1CCC(C)(CC1)OCCC[C@H](C)O2` [Example 12, (2S)-2-(tert-Butoxy)-2-[(22S)-16-fluoro-4,17,22,27-tetramethyl-21,26-dioxa-1,5,7,8-tetraazahexacyclo[25.2.2.1^6,9.1^10,14.0^2,7.0^15,20]tritriaconta-2,4,6(33),8,10(32),11,13,15(20),16,18-decaen-3-yl]acetic acid], which EC50 is on record?
Its EC50 is 3 nM.

Which EC50 does the source give for `Cc1nc2cc3nn2c(c1[C@H](OC(C)(C)C)C(=O)O)N1CCC(C)(CC1)OC/C=C/[C@H](C)Oc1ccc(F)cc1-c1cccc-3c1` [Example 13, (2S)-2-(tert-Butoxy)-2-[(22S,23E)-17-fluoro-4,22,27-trimethyl-21,26-dioxa-1,5,7,8-tetraazahexacyclo[25.2.2.1^6,9.1^10,14.0^2,7.0^15,20]tritriaconta-2,4,6(33),8,10(32),11,13,15(20),16,18,23-undecaen-3-yl]acetic acid] here?
Its EC50 is 4 nM.

With `Cc1nc2cc3nn2c(c1[C@H](OC(C)(C)C)C(=O)O)N1CCC(C)(CC1)OCCC[C@H](C)Oc1ccc(F)cc1-c1cccc-3c1` [Example 14, (2S)-2-(tert-Butoxy)-2-[(22S)-17-fluoro-4,22,27-trimethyl-21,26-dioxa-1,5,7,8-tetraazahexacyclo[25.2.2.1^6,9.1^10,14.0^2,7.0^15,20]tritriaconta-2,4,6(33),8,10(32),11,13,15(20),16,18-decaen-3-yl]acetic acid] as the molecule, how does the EC50 read?
The EC50 was 9 nM.

Which EC50 does the source give for `Cc1ccc2c(c1)O[C@@H](C)/C=C/COC1(C)CCN(CC1)c1c([C@H](OC(C)(C)C)C(=O)O)c(C)nc3cc(nn13)-c1cccc-2c1` [Example 15, (2S)-2-(tert-Butoxy)-2-[(22S,23E)-4,18,22,27-tetramethyl-21,26-dioxa-1,5,7,8-tetraazahexacyclo[25.2.2.1^6,9.1^10,14.0^2,7.0^15,20]tritriaconta-2,4,6(33),8,10(32),11,13,15(20),16,18,23-undecaen-3-yl]acetic acid] here?
The EC50 was 8 nM.

For `Cc1ccc2c(c1)O[C@@H](C)CCCOC1(C)CCN(CC1)c1c([C@H](OC(C)(C)C)C(=O)O)c(C)nc3cc(nn13)-c1cccc-2c1` [Example 16, (2S)-2-(tert-Butoxy)-2-[(22S)-4,18,22,27-tetramethyl-21,26-dioxa-1,5,7,8-tetraazahexacyclo[25.2.2.1^6,9.1^10,14.0^2,7.0^15,20]tritriaconta-2,4,6(33),8,10(32),11,13,15(20),16,18-decaen-3-yl]acetic acid], which EC50 is on record?
Its EC50 is 8 nM.

`Cc1cc(F)c2c(c1)O[C@@H](C)/C=C/COC1(C)CCN(CC1)c1c([C@H](OC(C)(C)C)C(=O)O)c(C)nc3cc(nn13)-c1cccc-2c1` [Example 17, (2S)-2-(tert-Butoxy)-2-[(22S,23E)-16-fluoro-4,18,22,27-tetramethyl-21,26-dioxa-1,5,7,8-tetraazahexacyclo[25.2.2.1^6,9.1^10,14.0^2,7.0^15,20]tritriaconta-2,4,6(33),8,10(32),11,13,15(20),16,18,23-undecaen-3-yl]acetic acid] was tested. Which EC50 did it give?
The EC50 was 9 nM.

`Cc1cc(F)c2c(c1)O[C@@H](C)CCCOC1(C)CCN(CC1)c1c([C@H](OC(C)(C)C)C(=O)O)c(C)nc3cc(nn13)-c1cccc-2c1` [Example 18, (2S)-2-(tert-Butoxy)-2-[(22S)-16-fluoro-4,18,22,27-tetramethyl-21,26-dioxa-1,5,7,8-tetraazahexacyclo[25.2.2.1^6,9.1^10,14.0^2,7.0^15,20]tritriaconta-2,4,6(33),8,10(32),11,13,15(20),16,18-decaen-3-yl]acetic acid] was tested. Which EC50 did it give?
The EC50 was 7 nM.
